Patent US9079880B2, “Rho kinase inhibitors” (Boehringer Ingelheim International GmbH, priority 2010, dated 2015)

How the values were obtained:
ROCKII (1-543) [1] = target: T1, ROCKII (1-543) (Homo sapiens (Human), UniProt O75116); assay: Luciferin-Luciferase Assay (PKLight ATP detection); format: biochemical; settings: 750 nM ATP, 500 nM peptide, 7.5 nM kinase
Description: 1. Luciferin-Luciferase Assay
The activity of ROCKII (1-543) kinase was measured utilizing Cambrex PKLight ATP Detection Reagent, a homogeneous assay technology using luciferin-luciferase to quantify residual ATP. The assay was performed in 384-well low-volume, white, non-binding surface microtiter plates (Corning). The assay buffer was 25 mM HEPES, pH 7.5, 10 mM MgCl2, 50 mM KCl, 0.2% BSA, 0.01% CHAPS, 100 μM Na3VO4 and 0.5 mM DTT. Test compounds, dissolved in neat DMSO at 500 μg/mL, were serially diluted for dose response for a final starting concentration of 3 μg/mL in 1% DMSO of assay buffer. ROCKII (1-543) (62,408Da) was diluted in assay buffer to a final concentration of 7.5 nM in a total volume of 15 μL. Positive controls were reaction mixtures containing no test compound; negative controls (blanks) were reaction mixtures containing no kinase. After 15 minutes of pre-incubation of the test compounds with the kinase, a mixture of ATP and peptide substrate ([…]) in assay buffer was added to each well for a final concentration of 750 nM ATP and 500 nM peptide, respectively. After 90 minutes of incubation of the kinase reaction at 28° C. temperature, 10 μL of PKLight ATP Detection Reagent (warmed to room temperature previously) was added to each well. The assay plate was incubated at room temperature for additional 15 minutes and then read on an Analyst in luminescence mode. Dose-response experiments for each of the test compounds were conducted in quadruplet. IC50 values of test compounds represent 50% response of the positive control from the dose-response curve.
Target sequence in this assay (O75116 1-543): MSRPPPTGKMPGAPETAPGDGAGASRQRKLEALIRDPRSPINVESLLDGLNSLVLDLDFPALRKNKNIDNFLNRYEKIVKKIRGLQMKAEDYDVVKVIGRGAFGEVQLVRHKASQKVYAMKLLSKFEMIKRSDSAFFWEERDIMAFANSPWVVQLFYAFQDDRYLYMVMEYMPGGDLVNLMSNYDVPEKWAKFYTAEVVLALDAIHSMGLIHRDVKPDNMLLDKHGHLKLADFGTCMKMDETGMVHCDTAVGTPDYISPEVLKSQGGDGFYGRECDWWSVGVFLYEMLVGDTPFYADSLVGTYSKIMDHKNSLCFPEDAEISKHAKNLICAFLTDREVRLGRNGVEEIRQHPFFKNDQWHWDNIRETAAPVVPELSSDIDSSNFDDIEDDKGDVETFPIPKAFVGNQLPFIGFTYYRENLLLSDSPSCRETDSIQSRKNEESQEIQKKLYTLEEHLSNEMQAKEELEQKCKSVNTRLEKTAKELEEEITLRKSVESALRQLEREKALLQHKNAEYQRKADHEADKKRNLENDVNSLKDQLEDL

ROCKII (1-543) [2] = target: T1, ROCKII (1-543); assay: IMAP Assay (fluorescence polarization, FAM S6 peptide); format: biochemical; settings: 100 μM ATP, 200 nM FAM S6 peptide, 1 nM kinase; read-out: Assay 2 IC50
Description: This assay is performed using FAM S6 substrate peptide (Catalogue #R7184) and IMAP FP Screening Express Kit detection reagents from Molecular Devices (Sunnyvale, Calif.) in IMAP kinase reaction buffer (Tris-HCl, pH 7.2, 10 mM MgCl2, 0.05% NaN3, 0.1% phosphate-free BSA) containing 1 mM DTT. Test compounds dissolved in neat DMSO at 0.3 mg/mL are serially diluted 1 to 3 for concentration response in 100% DMSO. The DMSO serial dilutions are further diluted 33.33-fold in kinase reaction buffer, and 10 μL of this buffer dilution is transferred to Corning black 96-well half area NBS plates for a final top concentration of 3 μg/mL in 1% DMSO. 10 μL aliquot of 3 nM ROCKII (1-543) diluted in kinase reaction buffer is added to each assay well for a final concentration of 1 nM kinase. 10 μL of a mixture of 600 nM FAM S6 peptide and 300 μM ATP diluted in kinase reaction buffer is added to each well for a final concentration of 200 nM peptide and 100 μM ATP. The kinase reaction mixture is incubated for 60 minutes at room temperature. Positive controls are reaction mixtures containing no test compound and negative controls (blanks) are reaction mixtures containing no kinase. The kinase reaction is stopped by addition of 60 μL IMAP progressive binding reagent (Catalog #R7284) diluted 400-fold in 1× Binding buffer A. After 30 min of incubation at room temperature, the plates are read for fluorescence polarization on Analyst Plate Reader using Ex 485 nm, Em 530 nm, and FL 505 dichroic mirror. The mP signals are converted to percent of control (POC) values using the formula: POC=100*(Signal−BCTRL)÷(PCTRL−BCTRL)
Where Signal is the test well signal, BCTRL is the average of background (negative control) well signals on the plate and PCTRL is the average of positive control well signals on the plate. For the concentration-responsive compounds, POC as a function of test compound concentration is fitted to a 4-parameter logistic equation of the form: Y=A+(B−A)/[1+(x/C)D] Where A, B, C, and D are fitted parameters (parameter B is fixed at zero POC), and x and y are the independent and dependent variables, respectively. The IC50 is determined as the inflection point parameter, C.
Target sequence in this assay (O75116 1-543, species assumed): as the sequence (O75116 1-543) above

Row | Structure (SMILES) | IC50 (ROCKII (1-543) [1]) [nM] | IC50 (ROCKII (1-543) [2]) [nM]
1 | CN(C)[C@H]1CCc2nc(NC(=O)c3cccc(OCC(=O)Nc4ccc(C#N)cc4)c3)sc2C1 [Compound 9] | 1.7 | 2.2
2 | N#Cc1ccc(NC(=O)COc2cccc(C(=O)Nc3nc4c(s3)C[C@@H](N)CC4)c2)cc1 [Compound 11, N—((S)-6-amino-4,5,6,7-tetrahydro-benzothiazol-2-yl)-3-[(4-cyano-phenylcarbamoyl)-methoxy]-benzamide] | 3.7 | 11
3 | N#Cc1ccc(NC(=O)COc2cccc(C(=O)Nc3nc4c(s3)C[C@@H](N3CCOCC3)CC4)c2)cc1 [Compound 13] | 3.4 | 8.5
4 | N#Cc1cccc(NC(=O)N2CCC[C@@H]2c2cccc(C(=O)Nc3ccc(CCN4CCOCC4)cc3)c2)c1 [Compound 16, (R)-2-{3-[4-(2-morpholin-4-yl-ethyl)-phenylcarbamoyl]-phenyl}-pyrrolidine-1-carboxylic acid (3-cyano-phenyl)-amide trifluoro acetic acid] | 5.8 | 23
5 | N#Cc1cccc(NC(=O)N2CCC[C@@H]2c2cccc(C(=O)Nc3ccc(CCN4CCCC4)cc3)c2)c1 [Compound 18] | 6 | 19
6 | N#Cc1cccc(NC(=O)N2CCC[C@@H]2c2cccc(C(=O)Nc3nc4c(s3)C[C@@H](N)CC4)c2)c1 [Compound 20, (R)-2-[3-((S)-6-Amino-4,5,6,7-tetrahydro-benzothiazol-2-ylcarbamoyl)-phenyl]-pyrrolidine-1-carboxylic acid (3-cyano-phenyl)-amide trifluoroacetic acid] | 1.7 | 0.39
7 | N#Cc1cccc(NC(=O)N2CCC[C@@H]2c2cccc(C(=O)Nc3nc4c(s3)C[C@H](N)CC4)c2)c1 [Compound 22] | 2.6 | 1
8 | CN1CCc2nc(NC(=O)c3cccc(OCC(=O)Nc4ccc5[nH]ncc5c4)c3)sc2C1 [Compound 23] |  | 0.8
9 | CN1CCc2nc(NC(=O)c3cccc([C@H]4CCCN4C(=O)c4ccc(-c5ccncc5)cc4)c3)sc2C1 [Compound 26] | 1.7 | 5.8
10 | CCCN[C@H]1CCc2nc(NC(=O)c3cccc([C@H]4CCCN4C(=O)Nc4cccc(C#N)c4)c3)sc2C1 [Compound 29, (R)-2-[3-((S)-6-propylamino-4,5,6,7-tetrahydro-benzothiazol-2-ylcarbamoyl)-phenyl]-pyrrolidine-1-carboxylic acid (3-cyano-phenyl)-amide] | 1.6 | 0.8
11 | CCCN[C@H]1CCc2nc(NC(=O)c3cccc([C@@H](C)NC(=O)c4ccc(OC)c(OC)c4)c3)sc2C1 [Compound 31, 3,4-dimethoxy-N-{(R)-1-[3-((S)-6-propylamino-4,5,6,7-tetrahydro-benzothiazol-2-ylcarbamoyl)-phenyl]-ethyl}-benzamide] | 1 | 0.3
12 | CCCN[C@H]1CCc2nc(NC(=O)c3cccc([C@@H](C)NC(=O)c4ccc(OC)c(Cl)c4)c3)sc2C1 [Compound 33] | 1.2 | 0.5
13 | CCCN[C@H]1CCc2nc(NC(=O)c3cccc([C@@H](C)NC(=O)c4ccc(OC)c(C)c4)c3)sc2C1 [Compound 35] | 0.9 | 0.4
14 | CN(C)[C@H]1CCc2nc(NC(=O)c3cccc([C@H]4CCCN4C(=O)Nc4cccc(C#N)c4)c3)sc2C1 [Compound 37] |  | 0.3
15 | CN1CCc2nc(NC(=O)c3cccc([C@H]4CCCN4C(=O)N4CCc5c(C#N)cccc54)c3)sc2C1 [Compound 42, 3-[(R)-1-(4-Cyano-2,3-dihydro-indole-1-carbonyl)-pyrrolidin-2-yl]-N-(5-methyl-4,5,6,7-tetrahydro-thiazolo[5,4-c]pyridin-2-yl)-benzamide trifluoroacetic acid] | 6.9 | 44.5
16 | CN1CCc2nc(NC(=O)c3cccc([C@H]4CCCN4C(=O)Nc4ccc(C(N)=O)cc4)c3)sc2C1 [Compound 44] | 1.4 | 0.7
17 | Cc1nc(-c2ccncc2)sc1C(=O)N1CCC[C@@H]1c1cccc(C(=O)Nc2nc3c(s2)C[C@@H](N(C)C)CC3)c1 [Compound 48] | 2.8 | 10
18 | CN(C)[C@H]1CCc2nc(NC(=O)c3cccc([C@H]4CCCN4C(=O)c4nnn(-c5nonc5N)c4-c4ccccc4)c3)sc2C1 [Compound 50] | 2.2 | 8.7

Row | Structure (SMILES) | IC50 (ROCKII (1-543) [1]) [nM] | IC50 (ROCKII (1-543) [2]) [nM]
19 | CN1CCc2nc(NC(=O)c3cccc([C@H]4CCCN4C(=O)c4cccc(-c5cn[nH]c5)c4)c3)sc2C1 [Compound 78] | 1.9 | 2.1
20 | N#Cc1ccn2cc(C(=O)N3CCC[C@@H]3c3cccc(C(=O)Nc4nc5c(s4)C[C@@H](N4CCOCC4)CC5)c3)nc2c1 [Compound 82] |  | 1.7
21 | CN(C)[C@H]1CCc2nc(NC(=O)c3cccc([C@H]4CCCN4C(=O)c4ccc(-c5ccncc5)cc4)c3)sc2C1 [Compound 88] |  | 3.8
22 | COc1ccc(C(=O)N[C@H](C)c2cccc(C(=O)Nc3nc4c(s3)CN(C)CC4)c2)cc1Cl [Compound 89] | 3.9 | 13
23 | CN(C)[C@H]1CCc2nc(NC(=O)c3cccc([C@H]4CCCN4C(=O)c4ccc(-c5cnco5)cc4)c3)sc2C1 [Compound 90] |  | 2.1
24 | CN(C)[C@H]1CCc2nc(NC(=O)c3cccc([C@H]4CCCN4C(=O)c4csc(-c5cccnc5)n4)c3)sc2C1 [Compound 92] |  | 1.3
25 | COc1ccc(C(=O)N[C@H](C)c2cccc(C(=O)Nc3nc4c(s3)CN(C)CC4)c2)cc1C [Compound 93] | 9 | 29
26 | CN(C)[C@H]1CCc2nc(NC(=O)c3cccc([C@H]4CCCN4C(=O)c4csc(-c5ccncc5)n4)c3)sc2C1 [Compound 94] |  | 2
27 | CN(C)[C@H]1CCc2nc(NC(=O)c3cccc([C@H]4CCCN4C(=O)c4cc(-c5ccncc5)[nH]n4)c3)sc2C1 [Compound 96] |  | 0.8
28 | COc1ccc(C(=O)N[C@H](C)c2cccc(C(=O)Nc3nc4c(s3)CN(C)CC4)c2)cc1OC [Compound 97] | 3.1 | 5.8
29 | CCCC[C@@H](NC(=O)c1ccc(OC)c(OC)c1)c1cccc(C(=O)Nc2nc3c(s2)CN(C)CC3)c1 [Compound 98] | 6.2 | 11
30 | CN(C)[C@H]1CCc2nc(NC(=O)c3cccc([C@H]4CCCN4C(=O)c4ccc5cc(O)ccc5c4)c3)sc2C1 [Compound 100] |  | 2
31 | CN1CCc2nc(NC(=O)c3cccc([C@H]4CCCN4C(=O)Nc4cccc(C#N)c4)c3)sc2C1 [Compound 101, (R)-2-[3-(5-Methyl-4,5,6,7-tetrahydro-thiazolo[5,4-c]pyridin-2-ylcarbamoyl)-phenyl]-pyrrolidine-1-carboxylic acid (3-cyano-phenyl)-amide trifluoroacetic acid] | 3.1 | 6.8
32 | CN(C)[C@H]1CCc2nc(NC(=O)c3cccc([C@H]4CCCN4C(=O)c4ccc(-n5ccnc5)cc4)c3)sc2C1 [Compound 102] | 2.6 | 3.6
33 | CN(C)[C@H]1CCc2nc(NC(=O)c3cccc([C@H]4CCCN4C(=O)c4cn5cc(C(N)=O)ccc5n4)c3)sc2C1 [Compound 104] |  | 1.7
34 | CN(C)[C@H]1CCc2nc(NC(=O)c3cccc([C@H]4CCCN4C(=O)c4cccc(-c5cn[nH]c5)c4)c3)sc2C1 [Compound 106] |  | 1.9
35 | O=C(Nc1nc2c(s1)C[C@@H](N1CCOCC1)CC2)c1cccc([C@H]2CCCN2C(=O)c2cc(-c3ccncc3)[nH]n2)c1 [Compound 138] |  | 4.2
